Experimental data: publication PMC11784013, “Potassium molybdate blocks APN-dependent coronavirus entry by degrading receptor via PIK3C3-mediated autophagy” (Journal of Virology, 2024)

Legend:
[1] = system: autophagy markers P62 and LC3; test: Autophagy markers P62 and LC3 in ST cells (western blot); assay type: cell-based, swine; conditions: PM 10 mM; for LC3 (LC3-Ⅱ) level, western blot, relative to WT without PM (=1) / P62 level, western blot, relative to WT without PM (=1): PRCV 0.1 MOI, 16 h
Procedure: (§1) Fig 6 PM degrades APN by autophagy-lysosome pathway. (A) ST cells were treated with PM (10 mM) and infected with TGEV (0.1 MOI) in the presence and absence of MG132 (20 µM), 3-MA (20 mM), and Z-VAD-FMK (20 µM) for 16 h. The APN expression and TGEV N were detected by western blot. (B) ST cells were treated with PM (10 mM) at 2, 4, 8, and 16 h, autophagy markers P62 and LC3, and APN were measured by western blot. (C) ST cells were transfected with RFP-EGFP-LC3B for 12 h and then treated with PM (10 mM) or H2O for 36 h. The fluorescence of GFP and RFP was detected by confocal microscopy, scale bar: 5 µm. (D) Quantification of autophagosomes (Merge) and autolysosomes (RFP) from C using Image J software. (E) ST cells were treated with PM or H2O for 24 h. The autophagosomes (yellow arrow) and autolysosomes (asterisk) were detected by transmission electron microscope, scale bar: 2 µm. (F) The number of autophagosomes (yellow arrow) and autolysosomes (asterisk) was quantified. All western blot results were calculated by Image J. Results are presented as mean ± SD of data from three independent experiments. ***, P ≤ 0.001.
Cotransfected cells were washed with cold PBS twice and lysed with NP40 lysis buffer (Beyotime, China, P0013F) supplemented with 1 mM PMSF (Beyotime, China, ST506) and phosphatase inhibitors (Beyotime, China, P1096). Lysis buffer containing cells was added to 20 µL of protein A+G agarose beads (Beyotime, China, P2055) and IgG (Santa Cruz, USA, 2025) on a rotating device for 4 h at 4°C to remove nonspecific proteins, after which the mixture was centrifuged at 2,500 rpm for 5 min. The supernatant was harvested, and anti-Flag/Myc/His/IgG antibodies were added to the samples on a rocking platform overnight at 4°C. Subsequently, 40 µL of protein A+G agarose beads were added to the supernatant containing the antibody, which was incubated for 4 h at 4°C on a rotating device. After washing with lysis buffer three times, the immunoprecipitates were collected by centrifugation, and the supernatant was discarded. Immunoprecipitated proteins were detected by western blotting. For the western blot, the proteins were separated by SDS‒PAGE and transferred onto a PVDF membrane (GE, USA, 10600023). The membranes were blocked in 5% nonfat milk at room temperature for 2 h and then incubated with specific primary antibodies overnight. Subsequently, the membrane was incubated with the secondary antibody for 1 h at room temperature. Finally, the proteins on the membranes were visualized with WesternBright ECL (Advansta, USA, K-12045-D50).
Fig. S8. PM inhibits PRCV infection by degrading APN via PIK3C3-mediated autophagy. (A-C) WT ST cells and PIK3C3 KO ST cells were treated with PM (10 mM) and infected with PRCV (0.1 MOI) for 16 h. Then the APN, PIK3C3, ATG14, BECN1, P62, PRCV N and LC3 were detected by western blot (A), and viral titers and PRCV N mRNA level were determined by TCID50 (B) and RT-qPCR (C) . (D-F) WT ST cells and PIK3C3 KO ST cells transfected with pCMV-Myc and pCMV-Myc-PIK3C3 respectively for 24 h were treated with PM (10 mM) and infected with PRCV (0.1 MOI) for 16 h. The APN, PIK3C3, P62, PRCV N and LC3 were determined by western blot (D). TCID50 (E) and RT-qPCR (F) were performed to detect viral titers and PRCV N m RNA level. All western blot results were calculated by Image J. Results are presented as mean ± SD of data from three independent experiments (also on this page, place not known: 6 8 10 12 Viral load(log copies/ul) *** 2 4 6 8 log10 TCID50/ml *** 6 8 10 12 + Viral load(log copies/ul) PIK3C3-Myc + - + + + *** *** 2 4 6 8 log10 TCID50/ml *** + + + + PIK3C3-Myc - - - + - + + + *** WT KO PM (C). WT KO PM PRCV PM - + + PRCV + + + WT PIK3C3 KO PIK3C3 PRCV PIK3C3-Myc - - - + PM - + + + PRCV + + + + WT PIK3C3 KO 0 0) […]

[2] = system: APN; test: APN expression in BHK-21 cells (western blot); assay type: cell-based, mouse; conditions: for APN level, western blot quantified by Image J, relative to no PM (=1): PM 10 mM
Procedure: Fig. S6. PM degrades human and mouse-derived APN expression. (A and B) HEK-293T cells (A) and […] (B) were treated with PM (10 mM) for 8 h or 16 h respectively, APN expression was measured by western blot. All western blot results were calculated by Image J. All experiments were […]
PM(10mM) - + - + PM(10mM) - + - + […]

[3] = system: autophagosomes and autolysosomes; test: Autophagic flux (RFP-EGFP-LC3B sensor) and transmission electron microscopy in ST cells; assay type: cell-based, swine
Procedure: as §1

[4] = Fig. S8D, PIK3C3 KO ST cells with PIK3C3-Myc
[5] = Fig. S8D, PIK3C3 KO ST cells without PIK3C3-Myc
[6] = Fig. S8D, WT ST cells with pCMV-Myc

[K+].[K+].[O]=[Mo](=[O])([O-])[O-] [PM, potassium molybdate]
LC3 (LC3-Ⅱ) level, western blot, relative to WT without PM (=1) ([1]; Fig. S8A, PIK3C3 KO ST cells): 0.95
P62 level, western blot, relative to WT without PM (=1) ([1]; Fig. S8A, PIK3C3 KO ST cells): 0.83
LC3 (LC3-Ⅱ) level, western blot, relative to WT without PM (=1) ([1]; Fig. S8A, WT ST cells): 3.42
P62 level, western blot, relative to WT without PM (=1) ([1]; Fig. S8A, WT ST cells): 0.16
LC3 (LC3-Ⅱ) level, western blot, relative to WT without PM (=1) [1, 4]: 3.45
P62 level, western blot, relative to WT without PM (=1) [1, 4]: 0.27
LC3 (LC3-Ⅱ) level, western blot, relative to WT without PM (=1) [1, 5]: 1.12
P62 level, western blot, relative to WT without PM (=1) [1, 5]: 0.91
LC3 (LC3-Ⅱ) level, western blot, relative to WT without PM (=1) [1, 6]: 3.61
P62 level, western blot, relative to WT without PM (=1) [1, 6]: 0.26
LC3-II generation from LC3-I ([1]; ST cells, 2-16 h, western blot): more of the autophagosome protein LC3-II was generated
p62 level ([1]; ST cells, 2-16 h, western blot): p62 was consumed
APN level, western blot quantified by Image J, relative to no PM (=1) ([2]; 8 h): 0.38
APN level, western blot quantified by Image J, relative to no PM (=1) ([2]; 16 h): 0.20
mouse-derived APN expression ([2]; PM for 8 and 16 h): also decreased human and mouse-derived APN expression
autophagic flux (RFP-EGFP-LC3B sensor) ([3]; PM 10 mM, 36 h, confocal microscopy): increased RFP signals (autolysosomes) and merge signals (autophagosomes)
autophagosomes and autolysosomes by transmission electron microscopy ([3]; PM vs H2O, 24 h): formed more autophagosomes
